Assay in all cases: ≥ marks a high value that may be exact or a test limit, other limits are often not marked, values filed in µg/mL are converted to µM
Assay [1] concerns Pseudomonas aeruginosa KCTC 1637.
In assay [2] the test system is Staphylococcus aureus CCARM 3001.
Assay [3] concerns Pseudomonas aeruginosa CCARM 2109.
Assay [4] relates to Pseudomonas aeruginosa CCARM 2095.
Assay [5] has as its system Bacillus subtilis KCTC 3068.
Assay [6] concerns Salmonella typhimurium KCTC 1926.
The test system of assay [7] is Escherichia coli KCTC 1682.
For assay [8], the system named is Staphylococcus epidermidis KCTC 1917.
Assay [9] concerns Staphylococcus aureus KCTC 1621.
The test system of assay [10] is Staphylococcus aureus CCARM 3543.
Assay [11] deals with Streptococcus pyogenes KCTC 3096.
The subject of assay [12] is Bacillus subtilis KCTC 1918.
In assay [13] the test system is Candida albicans TIMM 1768.
Assay [14] concerns Aspergillus fumigatus KCTC 4165.
The subject of assay [15] is Escherichia coli DSM 10233.
Assay [16] relates to Micrococcus luteus ATCC 10240.
Assay [17] has as its system Bacillus subtilis DSM 347.
Another assay relates to Escherichia coli 1103.
Assay [18] concerns Klebsiella pneumoniae DSM 681.
Another assay deals with Escherichia coli BL21AI.

≈ marks a conversion by molar mass, not a printed value.

For `NC(=O)[C@H](CCCN=C(N)N)NC(=O)[C@H](CCCN=C(N)N)NC(=O)[C@H](Cc1c[nH]c2ccccc12)NC(=O)[C@H](CCCN=C(N)N)NC(=O)[C@H](CCCN=C(N)N)NC(=O)[C@H](Cc1c[nH]c2ccccc12)NC(=O)[C@H](CCCN=C(N)N)NC(=O)[C@H](CCCN=C(N)N)NC(=O)[C@H](Cc1c[nH]c2ccccc12)NC(=O)[C@H](CCCN=C(N)N)NC(=O)[C@@H](N)CCCN=C(N)N` [RRWRRWRRWRR], the MIC (in general, the least concentration at which growth counts as inhibited) stood at 8 µM (≈ 14.6 µg/mL) in [1]; 8 µM (≈ 14.6 µg/mL) in [2]; 16 µM (≈ 29.2 µg/mL) in [3]; 16 µM (≈ 29.2 µg/mL) in assay [4]; 4 µM (≈ 7.3 µg/mL) in assay [5]; 4 µM (≈ 7.3 µg/mL) in [6]. Also, the MIC in assay [7] came out at 8 µM (≈ 14.6 µg/mL); in assay [8] it was 2 µM (≈ 3.65 µg/mL); in [9], 8 µM (≈ 14.6 µg/mL); in assay [10] it was 4 µM (≈ 7.3 µg/mL).
For `CC[C@H](C)[C@H](NC(=O)[C@H](CCCCN)NC(=O)[C@H](CCCCN)NC(=O)[C@H](CC(C)C)NC(=O)[C@H](CCCCN)NC(=O)[C@H](CCC(=O)O)NC(=O)CN)C(=O)NCC(=O)N[C@@H](CCCCN)C(=O)N[C@@H](CCCCN)C(=O)N[C@H](C(=O)N[C@@H](CCCCN)C(=O)N[C@@H](CC(N)=O)C(=O)N[C@@H](Cc1ccccc1)C(=O)N[C@@H](Cc1ccccc1)C(=O)N[C@@H](CCC(N)=O)C(=O)N[C@@H](CCCCN)C(=O)N[C@@H](CC(C)C)C(=O)O)[C@@H](C)CC` [GEKLKKIGKKIKNFFQKL], the MIC in [1] was determined as 3.12 µM (≈ 6.7 µg/mL); in [11], 25 µM (≈ 53.7 µg/mL); in [12] it was 12.5 µM (≈ 26.8 µg/mL); in [6], 6.25 µM (≈ 13.4 µg/mL); in assay [7] it was 12.5 µM (≈ 26.8 µg/mL); in assay [13], 25 µM (≈ 53.7 µg/mL). Further, the MIC in [14] amounted to 25 µM (≈ 53.7 µg/mL); in assay [9] it was 12.5 µM (≈ 26.8 µg/mL).
Regarding `CC[C@H](C)[C@H](NC(=O)[C@@H]1CCCN1C(=O)[C@H](CCC(N)=O)NC(=O)[C@@H]1CCCN1C(=O)[C@H](CCCN=C(N)N)NC(=O)[C@@H]1CCCN1C(=O)[C@@H]1CCCN1C(=O)[C@H](Cc1cnc[nH]1)NC(=O)[C@@H]1CCCN1C(=O)[C@H](CCCN=C(N)N)NC(=O)[C@@H](N)CC(C)C)C(=O)N[C@@H](Cc1ccc(O)cc1)C(=O)N[C@H](C(=O)N1CCC[C@H]1C(=O)N[C@@H](CCCN=C(N)N)C(=O)N[C@@H](CC(N)=O)C(=O)N[C@@H](CC(N)=O)C(=O)NCC(N)=O)C(C)C` [LRPHPPRPQPIYVPRNNG], the MIC (in assay [15]; in [16]; in [17]; against Escherichia coli 1103; in assay [18]; against Escherichia coli BL21AI) was ≥ 59.3 µM throughout.

Source of the values: DBAASP.
